Experimental data reported in patent publication US20070061917A1, “Methods and compositions for the expression of a polynucleotide of interest” (Pioneer Hi-Bred International, Inc., priority 2005, published 2007).

Assays:
[1] = tested on: non-transformed GS3 embryos; assay: Glyphosate kill curve on non-transformed embryos; type: cell-based, maize; details: about 40 days culture
Protocol: (§1) A glyphosate kill curve was established by testing non-transformed embryos response on media with different levels of glyphosate. GS3 embryos were isolated from an immature ear and placed onto media containing glyphosate at 0.0, 0.5, 1.0, and 2.0 mM. After about 40 days culture, the response of the embryos were observed and recorded. Similarly, infected GS3 embryos with the GAT construct were placed onto media containing glyphosate at 0.0, 0.5, 1.0, and 2.0 mM. After about 40 days culture, the response of the infected embryos were observed and recorded (FIG. 7).
(§2) Western or PCR analysis has confirmed that these resistant calli were transformed. Currently, GAT has performed consistently as an effective selectable marker with excellent transformation efficiency in both GS3 and introEF09B genotypes (FIG. 9 and Table 1).

[2] = tested on: infected GS3 embryos with the GAT construct; assay: Glyphosate response of embryos infected with the GAT construct; type: cell-based, maize; details: about 40 days culture
Protocol: as §1, §2

Question: How did the embryo callus response ([1]; 0.5 mM glyphosate in medium) turn out when O=C(O)CNCP(=O)(O)O [glyphosate] was run?
Answer: about half of the embryos

Question: What about the embryo callus response ([1]; 1.0 mM glyphosate in medium) of the same molecule?
Answer: very little callus growth

Question: What about the embryo callus response ([1]; 2.0 mM glyphosate in medium) of the same molecule?
Answer: very little callus growth

Question: And the embryo callus response ([2]; 0.5 mM glyphosate in medium)?
Answer: more callus was grown

Question: And the embryo callus response ([2]; 1.0 mM glyphosate in medium)?
Answer: some embryos initiated resistant callus

Question: What about the embryo callus response ([2]; 2.0 mM glyphosate in medium) of the same molecule?
Answer: some embryos initiated resistant callus
